For 99 compounds, cytotoxicity results are on record in ChEMBL document CHEMBL3507680, “University of Dundee, Gates Library screen for HepG2 cell viability”.

The data set can be described thus: Human HepG2 cell viability assay in 384 well format. In kind it is toxicity, cell-based. Also on record: dose 125 nL, time 70.5 hour; cytotoxicity at 70.5 h: concentration not given beside the values. The note with it: HepG2 cells, read-out: Inhibition.
`CC(=O)Nc1ncc(S(=O)(=O)Nc2cccc(C)c2)s1`: the cytotoxicity at 70.5 h is -12.5%.

As to `Cc1nn(CC(=O)NCCc2ccncc2)c(=O)n1Cc1ccccc1`, the cytotoxicity at 70.5 h was determined as 1.25%.

Consider `Cc1cc(C(=O)NCc2ccnc(N3CCN(C)CC3)c2)c(C)s1`, for which the cytotoxicity at 70.5 h is -18%.

Take `Cc1ccc(CSc2nc(N)cc(NCCC(=O)N3CCCC3)n2)cc1`: the cytotoxicity at 70.5 h was -4.18%.

As to `COc1ccccc1NC(=O)NC1(c2noc(CN(C)C)n2)CCCC1`, the cytotoxicity at 70.5 h amounted to 22.4%.

In the case of `CCC1(C(=O)O)CCCN(C(=O)c2ccc(N3CCN(C)CC3)cc2)C1` (centres undefined), the cytotoxicity at 70.5 h was 21.4%.

On to `CCOC1COC2(CCN(c3ncc(C)cn3)CC2)C1` (centres undefined), for which the cytotoxicity at 70.5 h is -2.14%.

As to `Cc1nn(C)c2c(NCCCn3cccn3)nc(C3CC3)nc12`, the cytotoxicity at 70.5 h is -5.95%.

Turning to `CC[C@H]1N(C)CCC[C@]12CCC(=O)N2Cc1ccncc1`, the cytotoxicity at 70.5 h is 10.9%.

In the case of `O=C(c1cc2c(s1)CCC2)N1CCCCC1Cn1cccn1` (centres undefined), the cytotoxicity at 70.5 h is -3.46%.

In the case of `CC(C)COC(C)C(=O)N1CCC(C)CC1` (centres undefined), the cytotoxicity at 70.5 h was 3.43%.

On to `Cc1csc(CNC(=O)N(C)Cc2cnn(C)c2)n1`, for which the cytotoxicity at 70.5 h is -15.5%.

`c1ccc(N2CCOCC3(CCCN(c4nccs4)C3)C2)nc1` (centres undefined): the cytotoxicity at 70.5 h turned out to be 4.3%.

On to `CCC(=O)c1ccc(OCC(=O)NC(C)c2ncnn2CC)cc1` (centres undefined), for which the cytotoxicity at 70.5 h was -17.2%.

For `CN(C)C(=O)c1ccc(N2CCC3(CCC(=O)N(CCO)C3)CC2)nc1`, the cytotoxicity at 70.5 h was -2.34%.

As for `Cc1cccc(-c2c[nH]c(C3CCCN3C(=O)Cn3cc(C)cn3)n2)c1` (centres undefined), the cytotoxicity at 70.5 h was 6.62%.

As for `CN(C)C(=O)c1cc2ncc(C(=O)NC3CC3)cc2n1C`, the cytotoxicity at 70.5 h is -1.06%.

For the compound `Cc1cc(CN2CCN(C(=O)c3sccc3C3CC3)CC2)no1`, the cytotoxicity at 70.5 h was -7.26%.

Regarding `CCOc1ncnc2c1CCN(c1cc(C(F)(F)F)ncn1)CC2`, the cytotoxicity at 70.5 h came out at 3.85%.

As to `O=C(NCc1cnc2n1CCN(Cc1nccs1)C2)c1ccno1`, the cytotoxicity at 70.5 h was -3.38%.

In the case of `CC(C)CCC1=NC2(CCN(C(=O)CN3CCCC3=O)CC2)C(=O)N1`, the cytotoxicity at 70.5 h was -5.52%.

Turning to `O=C(c1ccc(Cl)cc1)N1CCn2c(nn(-c3ccncc3)c2=O)C1`, the cytotoxicity at 70.5 h is -8.19%.

Take `CC(C)(C)c1cc(NC(=O)CNC2CCc3ncnn3C2)on1` (centres undefined): the cytotoxicity at 70.5 h was -11.9%.

On to `O=C(c1cccnc1)N1CCC2(CCN(C(=O)c3ccco3)CC2)C1`, for which the cytotoxicity at 70.5 h was found to be 2.92%.

Regarding `CC1CCN(S(=O)(=O)c2cccn(CC(=O)N3CCOCC3)c2=O)CC1`, the cytotoxicity at 70.5 h was -16%.

On to `CCc1nc(Cn2c(=O)n(CC)c3ccccc32)no1`, for which the cytotoxicity at 70.5 h was -7.55%.

Consider `O=C(NCCN1CCCCC1)c1scnc1Cl`, for which the cytotoxicity at 70.5 h was -8.74%.

Take `Cn1ncc(C(=O)N2CCN(C(=O)c3ccco3)CC2)c1Cl`: the cytotoxicity at 70.5 h was -13.4%.

Take `O=C(CN(CC(O)c1ccc(F)cc1)C1CC1)NC1CCOCC1` (centres undefined): the cytotoxicity at 70.5 h was -91.7%.

Regarding `CC(C)n1cc(C(=O)N2Cc3ccccc3OC3(CCOCC3)C2)cn1`, the cytotoxicity at 70.5 h worked out at 23.6%.

Regarding `CO[C@@H]1CN(c2ccccc2)S(=O)(=O)[C@@]12CCN(S(C)(=O)=O)C2`, the cytotoxicity at 70.5 h is 15.4%.

Regarding `CC(Cn1ccnc1)NC(=O)NCCc1ccc(Cl)s1` (centres undefined), the cytotoxicity at 70.5 h is -4.32%.

On to `COc1ccccc1-n1nc(C(C)C)nc1Cc1nnc(N)s1`, for which the cytotoxicity at 70.5 h was -12.4%.

Consider `O=C(CSc1nnc[nH]1)NCc1cccs1`, for which the cytotoxicity at 70.5 h is -2.74%.

Take `CN(CC(=O)N(C)C1CCCCC1)C1CCc2ccccc21` (centres undefined): the cytotoxicity at 70.5 h was -3.54%.

Turning to `CC(CNC(=O)c1c[nH]nn1)Oc1ccc(Cl)cc1` (centres undefined), the cytotoxicity at 70.5 h is -22.2%.

As to `O=c1c(Cc2ccccc2)c(O)ccn1Cc1cccs1`, the cytotoxicity at 70.5 h was determined as 23.3%.

On to `Cn1nc(-c2ccccc2)c(Br)c1C(=O)O`, for which the cytotoxicity at 70.5 h is -23.2%.

On to `CCN(Cc1ccoc1)C(C(N)=O)c1ccc(C#N)cc1` (centres undefined), for which the cytotoxicity at 70.5 h is -1.21%.

Turning to `Cc1c(C(=O)NCCC(=O)N2CCOCC2)oc2c(C)cccc12`, the cytotoxicity at 70.5 h was -12.9%.

`O=C(CNC(=O)N(Cc1ccoc1)C1CCCCC1)N1CCCC1`: the cytotoxicity at 70.5 h is -7.2%.

As to `Cc1ccc(CN(CCN(C)C)C(=O)Nc2ccc(C)c(C#N)c2)s1`, the cytotoxicity at 70.5 h was 1.83%.

For `O=C(C1CNCCN1C(=O)CCOc1ccccc1)N1CCOCC1` (centres undefined), the cytotoxicity at 70.5 h came out at 4.76%.

For `COc1cccc(-c2cc(C(=O)NCCCn3nc(C)cc3C)[nH]n2)c1`, the cytotoxicity at 70.5 h is -1.83%.

Turning to `O=C(O)c1ccccc1-n1cnc(CN2CCc3ccccc32)c1`, the cytotoxicity at 70.5 h was -7.59%.

Consider `O=C(NC1CCC1)C1=NOC2(CCN(Cc3ccc(F)cc3)C2)C1` (centres undefined), for which the cytotoxicity at 70.5 h worked out at 14.1%.

As for `CCN(Cc1cnn(C)c1)C[C@H]1CC[C@@H](Cc2cccc(CN)c2)O1`, the cytotoxicity at 70.5 h worked out at 3.32%.

For `CC(C)OCCN(C)CC(c1cccs1)N1CCOCC1` (centres undefined), the cytotoxicity at 70.5 h worked out at 29.2%.

Consider `Cc1nc2c(c(C)c1CC(=O)Nc1ccnn1C(C)C)c(=O)[nH]n2C`, for which the cytotoxicity at 70.5 h turned out to be 2.43%.

On to `Cc1cccc(C)c1CN1C(=O)CC2(CCSC2)C1=O` (centres undefined), for which the cytotoxicity at 70.5 h stood at 0.0631%.

On to `CC(C)CN1C[C@H]2CCN(C(=O)NC3CCCC3)CC[C@H]2S1(=O)=O`, for which the cytotoxicity at 70.5 h was -9.06%.

Consider `CCC(Oc1ccc(N(C)S(C)(=O)=O)cc1)C(=O)NC` (centres undefined), for which the cytotoxicity at 70.5 h is -1.39%.

Regarding `Cc1sc(CN)nc1-c1ccccc1`, the cytotoxicity at 70.5 h was -3.17%.

In the case of `COCc1nc(C(=O)N2CCCC2c2noc(C)n2)cs1` (centres undefined), the cytotoxicity at 70.5 h was -9.63%.

As to `O=C(O)[C@@H]1CN(Cc2cnc(C3CCCCC3)nc2)C[C@H]1C1CC1`, the cytotoxicity at 70.5 h was found to be 10.9%.

Turning to `CCN1CCC(CNS(=O)(=O)N2CCc3ccccc3C2)C1` (centres undefined), the cytotoxicity at 70.5 h stood at 6.73%.

For `Cc1ccncc1C(=O)N1C[C@@H]2CN(c3ncccn3)C[C@]2(C(=O)O)C1`, the cytotoxicity at 70.5 h was -5.72%.

Turning to `CS(=O)(=O)N1C[C@H]2CC[C@@H]1CN(Cc1ccncc1)C2`, the cytotoxicity at 70.5 h is -10.9%.

As to `O=C(NCCNC(=O)c1scnc1Cl)c1ccccc1`, the cytotoxicity at 70.5 h was -6.16%.

With `Cc1sc2nc(C(F)(F)F)nc(N3CCC(NS(C)(=O)=O)CC3)c2c1C`, the cytotoxicity at 70.5 h was -5.38%.

Consider `Cc1ncccc1NC(=O)C1=NOC2(CCN(Cc3nccs3)C2)C1` (centres undefined), for which the cytotoxicity at 70.5 h was -11.1%.

For the compound `CC(C)Nc1ncc(-c2csc(NC(=O)C[C@H]3COCCN3)n2)cn1`, the cytotoxicity at 70.5 h is -10.2%.

Take `CCCn1cc(NC(=O)c2ccncc2)ccc1=O`: the cytotoxicity at 70.5 h was -8.23%.

On to `CS(=O)(=O)N1CC[C@]2(C[C@@H](OCC3CCC3)CO2)C1`, for which the cytotoxicity at 70.5 h is -12.4%.

For `Cc1noc(C)c1C(C)C(=O)N1CCCN(Cc2cscn2)CC1` (centres undefined), the cytotoxicity at 70.5 h was -9.23%.

Turning to `O=C(NCc1nncn1C1CC1)c1ccccc1OCC1CC1`, the cytotoxicity at 70.5 h was -5.93%.

With `CC(C)(C)c1cc(NC(=O)CN2CCCCC2Cn2cncn2)on1` (centres undefined), the cytotoxicity at 70.5 h was -5.88%.

Consider `CN(C)S(=O)(=O)N1CC[C@H]2OCC[C@@]2(COc2cccnc2)C1`, for which the cytotoxicity at 70.5 h is -12.5%.

`CN(C)C(=O)N1C[C@H]2CC[C@@H]1CN(C1Cc3ccccc3C1)C2`: the cytotoxicity at 70.5 h was -9.42%.

With `COc1ccc(CC(=O)N2CCC[C@@H](N)[C@@H]2c2ccccc2F)cc1`, the cytotoxicity at 70.5 h is -0.222%.

Turning to `O=C(NC1CCCC1)O[C@H]1COCCN(c2nc3ccccc3o2)C1`, the cytotoxicity at 70.5 h was -3.6%.

As to `Cn1cnc(S(=O)(=O)NCCCN2CCCCCC2=O)c1Cl`, the cytotoxicity at 70.5 h worked out at 0.779%.

Regarding `Cc1cccc(-n2cnc(Cl)c2CO)c1`, the cytotoxicity at 70.5 h was -0.946%.

Take `O=S(=O)(C1CC1)N1CC[C@]2(C[C@@H](OCC3CCOCC3)CO2)C1`: the cytotoxicity at 70.5 h was -9.4%.

Turning to `CNC(=O)C(C)(C)CNC(=O)Nc1cc(C)ccn1`, the cytotoxicity at 70.5 h is -7.88%.

On to `CCNC(=O)[C@@H]1C[C@H](N)CN1c1cc(C(F)(F)F)nc(N2CCCC2)n1`, for which the cytotoxicity at 70.5 h was 3.41%.

Regarding `CC(=O)N1CCC(c2ccnc(Nc3cncnc3)n2)CC1`, the cytotoxicity at 70.5 h was -8.15%.

Turning to `O=S(=O)(N1CCOCC1)N1CCCC1Cn1cccn1` (centres undefined), the cytotoxicity at 70.5 h is -11.1%.

With `Cn1ncc(Cl)c1C(=O)N1CCc2nc3sccc3c(=O)n2CC1`, the cytotoxicity at 70.5 h was 33.8%.

For `CN([C@@H]1CCC[C@@H](n2ccnc2)[C@@H]1O)S(=O)(=O)c1cn(C)cn1`, the cytotoxicity at 70.5 h amounted to 19.9%.

Regarding `COC[C@]1(O)CCN(Cc2cnc(N3CCOCC3)nc2)CC1(C)C`, the cytotoxicity at 70.5 h is -14.6%.

In the case of `CC(C)c1nn(C)c(N(C)C)c1CNCC(O)c1ccccc1` (centres undefined), the cytotoxicity at 70.5 h is -10.1%.

Take `Cc1cnc(N2C[C@@H]3CN(Cc4ccco4)CCC[C@]3(C(=O)O)C2)nc1`: the cytotoxicity at 70.5 h was -5.9%.

As for `CC(C)n1ccnc1C1CCCN(c2nc3ccccc3s2)C1` (centres undefined), the cytotoxicity at 70.5 h was 2.12%.

Consider `Cc1cc(NC(=O)CN2CCCC2c2c(C)nn(C)c2Cl)on1` (centres undefined), for which the cytotoxicity at 70.5 h was -0.864%.

For the compound `CC(C)Oc1ncccc1CNC(=O)c1ccc(=O)[nH]n1`, the cytotoxicity at 70.5 h was -3.21%.

Turning to `COc1c(CNCCNC(=O)c2cccs2)c(C)nn1C`, the cytotoxicity at 70.5 h is -10.5%.

For `O=C(NCC1CCOC1)c1cc(-c2ccc(Cl)cc2)n[nH]1` (centres undefined), the cytotoxicity at 70.5 h was 20.6%.

On to `Cn1cnc(S(=O)(=O)NCC2(O)CCOc3ccccc32)c1` (centres undefined), for which the cytotoxicity at 70.5 h is -4.65%.

For `Cc1noc(C)c1C(=O)NCC1CCCCN1Cc1ccccc1` (centres undefined), the cytotoxicity at 70.5 h is -1.55%.

On to `Cc1nc(NCCSc2cnn[nH]2)c2c(C)noc2n1`, for which the cytotoxicity at 70.5 h was determined as 7.78%.

In the case of `CN(C)C(=O)N1CCC2(CC1)CNc1ccc(F)cc12`, the cytotoxicity at 70.5 h is -2.37%.

For the compound `CC(C)CN(C(=O)Nc1cccc(C(=O)N(C)C)c1)C1CC1`, the cytotoxicity at 70.5 h was -10.3%.

As for `CC(C)(C)n1cc(C(=O)N2CCN(Cc3cccnc3)CC2)cn1`, the cytotoxicity at 70.5 h is -7.69%.

As to `Cc1noc(CCCC(=O)NC(C)c2ccccn2)n1` (centres undefined), the cytotoxicity at 70.5 h is -0.329%.

Regarding `CCc1nnc2n1CCN(C(=O)CN(C)C1CC1)C2`, the cytotoxicity at 70.5 h was -0.0438%.

On to `COc1ccc(F)c(CN2CCCC(c3cc(O)nc(C)n3)C2)c1` (centres undefined), for which the cytotoxicity at 70.5 h is -3.96%.

As to `Cc1cc(C)n(NC(=O)c2ccccc2C)c(=O)c1`, the cytotoxicity at 70.5 h is -3.12%.

For the compound `CCC(C)NS(=O)(=O)Cc1cccc(NC(=O)C(C)C)c1` (centres undefined), the cytotoxicity at 70.5 h was -2.19%.
